Measurements published in US12258328B2, “6-membered heteroaryl-containing aminopyridine compounds as EGFR inhibitors” (YUHAN CORPORATION, priority 2021, dated 2025).
Read-outs that look alike come from different tables or passages of the source.

Columns and labels:
EGFR del19/C797S = EGFR del19/C797S (Homo sapiens, UniProt P00533, C797S/DEL746-750); experiment: Biochemical EGFR kinase assay (Lance Ultra TR-FRET), double mutant del19/C797S
In short: (§1)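 Kinase activity is measured by TR-FRET phosphopeptide detection. Compounds span 0.003 μM to 10 μM; the 1 h reaction at room temperature is quenched with EDTA, then labelled antibody (2 nM) is incubated 60 min before reading.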

EGFR wildtype = EGFR wildtype (Homo sapiens, UniProt P00533); experiment: Biochemical EGFR kinase assay (Lance Ultra TR-FRET), wildtype
Chain of EGFR wildtype (P00533 25-1210): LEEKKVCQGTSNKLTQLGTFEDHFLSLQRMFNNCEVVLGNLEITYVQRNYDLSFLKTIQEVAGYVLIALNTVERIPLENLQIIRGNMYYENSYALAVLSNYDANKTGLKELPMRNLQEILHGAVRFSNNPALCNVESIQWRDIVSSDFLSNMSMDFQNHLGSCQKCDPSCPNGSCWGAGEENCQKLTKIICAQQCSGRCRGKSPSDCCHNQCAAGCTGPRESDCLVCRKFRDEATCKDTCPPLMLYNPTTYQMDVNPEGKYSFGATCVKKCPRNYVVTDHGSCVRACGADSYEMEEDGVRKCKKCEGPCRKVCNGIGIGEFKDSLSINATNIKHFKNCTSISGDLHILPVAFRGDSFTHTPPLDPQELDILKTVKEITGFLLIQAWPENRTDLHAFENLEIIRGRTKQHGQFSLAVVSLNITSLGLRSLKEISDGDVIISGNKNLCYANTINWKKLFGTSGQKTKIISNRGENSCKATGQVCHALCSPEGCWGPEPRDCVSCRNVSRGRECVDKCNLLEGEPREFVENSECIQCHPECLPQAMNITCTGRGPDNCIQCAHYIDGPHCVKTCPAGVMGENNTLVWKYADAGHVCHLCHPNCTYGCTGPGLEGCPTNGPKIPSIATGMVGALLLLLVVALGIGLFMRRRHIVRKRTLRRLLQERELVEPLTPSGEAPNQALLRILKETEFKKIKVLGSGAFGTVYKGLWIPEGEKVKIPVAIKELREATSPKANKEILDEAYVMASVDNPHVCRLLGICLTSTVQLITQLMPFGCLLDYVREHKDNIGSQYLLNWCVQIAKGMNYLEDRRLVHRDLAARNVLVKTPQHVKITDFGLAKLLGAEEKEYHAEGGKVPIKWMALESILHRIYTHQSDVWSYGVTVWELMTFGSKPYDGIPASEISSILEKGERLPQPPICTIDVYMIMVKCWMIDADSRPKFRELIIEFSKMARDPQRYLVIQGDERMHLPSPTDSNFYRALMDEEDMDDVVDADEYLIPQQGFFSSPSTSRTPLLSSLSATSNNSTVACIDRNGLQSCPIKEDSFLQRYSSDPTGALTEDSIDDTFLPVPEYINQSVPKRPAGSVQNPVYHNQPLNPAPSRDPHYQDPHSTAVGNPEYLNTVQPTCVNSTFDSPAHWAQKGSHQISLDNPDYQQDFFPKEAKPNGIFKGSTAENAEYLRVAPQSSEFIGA
In short: as §1

EGFR L858R/C797S = EGFR L858R/C797S (Homo sapiens, UniProt P00533, C797S/L858R); experiment: Biochemical EGFR kinase assay (Lance Ultra TR-FRET), double mutant L858R/C797S
Chain of EGFR L858R/C797S (P00533 25-1210 C797S/L858R): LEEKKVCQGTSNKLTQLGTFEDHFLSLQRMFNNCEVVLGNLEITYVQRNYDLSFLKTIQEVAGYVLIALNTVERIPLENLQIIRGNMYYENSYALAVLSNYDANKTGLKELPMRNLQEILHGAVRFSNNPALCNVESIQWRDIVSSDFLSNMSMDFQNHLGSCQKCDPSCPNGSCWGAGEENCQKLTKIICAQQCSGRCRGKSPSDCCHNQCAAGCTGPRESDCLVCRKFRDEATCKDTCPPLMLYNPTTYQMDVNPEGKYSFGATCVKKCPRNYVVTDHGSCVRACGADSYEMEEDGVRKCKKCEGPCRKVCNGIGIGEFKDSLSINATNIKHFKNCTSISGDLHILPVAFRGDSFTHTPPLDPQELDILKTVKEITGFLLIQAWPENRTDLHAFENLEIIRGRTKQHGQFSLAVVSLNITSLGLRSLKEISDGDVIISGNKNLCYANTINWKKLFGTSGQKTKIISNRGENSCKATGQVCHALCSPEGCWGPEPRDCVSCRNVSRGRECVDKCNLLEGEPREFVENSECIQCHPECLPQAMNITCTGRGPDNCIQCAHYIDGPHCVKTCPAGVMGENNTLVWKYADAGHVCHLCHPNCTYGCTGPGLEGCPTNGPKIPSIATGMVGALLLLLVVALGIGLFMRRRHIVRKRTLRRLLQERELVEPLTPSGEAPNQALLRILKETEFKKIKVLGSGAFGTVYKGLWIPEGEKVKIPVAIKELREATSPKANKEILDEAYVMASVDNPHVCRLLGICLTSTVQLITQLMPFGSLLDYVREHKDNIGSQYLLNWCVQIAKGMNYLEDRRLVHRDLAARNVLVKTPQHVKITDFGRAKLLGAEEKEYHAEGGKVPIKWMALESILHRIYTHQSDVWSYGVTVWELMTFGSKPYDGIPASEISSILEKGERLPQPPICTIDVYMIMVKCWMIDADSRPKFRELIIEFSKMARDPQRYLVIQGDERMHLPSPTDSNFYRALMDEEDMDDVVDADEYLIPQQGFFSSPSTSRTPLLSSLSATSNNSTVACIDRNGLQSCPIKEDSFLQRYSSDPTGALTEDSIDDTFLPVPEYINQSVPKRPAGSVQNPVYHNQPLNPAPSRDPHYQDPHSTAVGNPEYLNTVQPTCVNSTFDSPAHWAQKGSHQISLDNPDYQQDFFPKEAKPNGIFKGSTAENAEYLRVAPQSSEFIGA
In short: as §1

EGFR L858R/T790M/C797S = EGFR L858R/T790M/C797S (Homo sapiens, UniProt P00533, C797S/L858R/T790M); experiment: Biochemical EGFR kinase assay (Lance Ultra TR-FRET), triple mutant L858R/T790M/C797S
In short: as §1

EGFR del19/T790M/C797S = EGFR del19/T790M/C797S (Homo sapiens, UniProt P00533, C797S/DEL746-750/T790M); experiment: Biochemical EGFR kinase assay (Lance Ultra TR-FRET), triple mutant del19/T790M/C797S
Chain of EGFR del19/T790M/C797S (P00533 with tags, fused parts or gaps DEL746-750/T790M/C797S): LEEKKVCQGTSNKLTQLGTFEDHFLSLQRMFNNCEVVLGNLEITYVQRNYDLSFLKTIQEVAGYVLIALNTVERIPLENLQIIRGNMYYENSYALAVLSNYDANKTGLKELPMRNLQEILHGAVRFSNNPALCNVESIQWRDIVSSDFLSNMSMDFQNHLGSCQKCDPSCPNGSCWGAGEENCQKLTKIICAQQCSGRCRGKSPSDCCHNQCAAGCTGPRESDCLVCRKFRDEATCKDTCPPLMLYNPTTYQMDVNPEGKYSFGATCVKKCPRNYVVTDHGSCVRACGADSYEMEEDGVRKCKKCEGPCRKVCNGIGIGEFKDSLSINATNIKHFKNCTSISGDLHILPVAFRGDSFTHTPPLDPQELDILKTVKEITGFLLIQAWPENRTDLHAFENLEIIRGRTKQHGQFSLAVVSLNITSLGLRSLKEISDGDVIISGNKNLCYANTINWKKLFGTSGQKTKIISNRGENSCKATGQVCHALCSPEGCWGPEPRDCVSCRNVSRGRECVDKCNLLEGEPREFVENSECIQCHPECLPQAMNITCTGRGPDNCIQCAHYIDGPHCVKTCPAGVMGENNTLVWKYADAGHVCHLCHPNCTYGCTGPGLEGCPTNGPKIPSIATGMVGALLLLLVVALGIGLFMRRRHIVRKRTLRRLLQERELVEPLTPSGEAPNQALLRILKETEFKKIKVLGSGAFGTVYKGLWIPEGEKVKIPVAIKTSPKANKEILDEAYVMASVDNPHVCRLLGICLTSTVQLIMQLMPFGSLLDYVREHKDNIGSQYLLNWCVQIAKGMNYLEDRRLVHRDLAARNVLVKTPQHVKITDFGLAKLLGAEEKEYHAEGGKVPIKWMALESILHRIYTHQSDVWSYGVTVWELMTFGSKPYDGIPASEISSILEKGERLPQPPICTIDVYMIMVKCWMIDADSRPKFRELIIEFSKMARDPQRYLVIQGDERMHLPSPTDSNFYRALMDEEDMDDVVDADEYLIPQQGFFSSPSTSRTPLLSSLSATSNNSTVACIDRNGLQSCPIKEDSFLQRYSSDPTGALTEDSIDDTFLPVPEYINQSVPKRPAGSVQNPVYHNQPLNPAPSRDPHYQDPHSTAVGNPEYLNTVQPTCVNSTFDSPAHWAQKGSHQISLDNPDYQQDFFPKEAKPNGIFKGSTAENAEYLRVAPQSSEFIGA
In short: as §1

[1] = IC50 L858R/T790M/C797S, 100 μM ATP
[2] = IC50 del19/T790M/C797S, 100 μM ATP
[3] = ATP at Km, read-out: IC50 del19/C797S, Km ATP
[4] = ATP at Km, read-out: IC50 WT, Km ATP
[5] = ATP at Km, read-out: IC50 L858R/C797S, Km ATP
[6] = ATP at Km, read-out: IC50 del19/T790M/C797S, Km ATP
[7] = ATP at Km, read-out: IC50 L858R/T790M/C797S, Km ATP

Chain of EGFR del19/C797S (P00533 with tags, fused parts or gaps DEL746-750/C797S): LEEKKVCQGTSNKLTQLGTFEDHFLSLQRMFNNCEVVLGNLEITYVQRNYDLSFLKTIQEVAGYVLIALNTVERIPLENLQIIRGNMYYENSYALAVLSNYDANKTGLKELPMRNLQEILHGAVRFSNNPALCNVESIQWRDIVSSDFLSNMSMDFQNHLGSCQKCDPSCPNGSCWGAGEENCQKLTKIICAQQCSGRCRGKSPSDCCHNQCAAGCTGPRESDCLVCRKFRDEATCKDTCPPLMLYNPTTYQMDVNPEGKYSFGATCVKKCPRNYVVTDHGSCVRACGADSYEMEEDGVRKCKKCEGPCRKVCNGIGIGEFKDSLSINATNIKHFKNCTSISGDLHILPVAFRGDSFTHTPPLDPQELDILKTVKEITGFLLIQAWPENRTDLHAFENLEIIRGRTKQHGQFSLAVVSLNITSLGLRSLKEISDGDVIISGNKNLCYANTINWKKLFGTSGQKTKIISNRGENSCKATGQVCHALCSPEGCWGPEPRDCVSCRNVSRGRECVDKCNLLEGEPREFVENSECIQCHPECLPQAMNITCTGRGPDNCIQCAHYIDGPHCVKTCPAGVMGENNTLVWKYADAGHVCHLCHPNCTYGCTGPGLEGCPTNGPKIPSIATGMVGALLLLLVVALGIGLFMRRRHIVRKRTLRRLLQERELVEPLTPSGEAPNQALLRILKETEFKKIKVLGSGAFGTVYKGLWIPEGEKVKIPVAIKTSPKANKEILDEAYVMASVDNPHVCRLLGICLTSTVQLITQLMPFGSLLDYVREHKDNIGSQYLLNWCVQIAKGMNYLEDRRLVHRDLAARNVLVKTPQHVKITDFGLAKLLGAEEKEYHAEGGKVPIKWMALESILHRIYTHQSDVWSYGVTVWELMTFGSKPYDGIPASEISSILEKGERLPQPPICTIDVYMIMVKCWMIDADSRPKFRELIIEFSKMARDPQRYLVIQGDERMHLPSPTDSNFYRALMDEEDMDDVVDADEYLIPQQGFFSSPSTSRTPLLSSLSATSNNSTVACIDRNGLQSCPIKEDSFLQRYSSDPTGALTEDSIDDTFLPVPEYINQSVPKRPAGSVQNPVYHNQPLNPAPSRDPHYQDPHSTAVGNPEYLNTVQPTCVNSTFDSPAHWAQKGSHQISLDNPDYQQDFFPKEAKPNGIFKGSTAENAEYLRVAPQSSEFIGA

Structure (SMILES)	IC50 (EGFR del19/C797S; IC50 del19/C797S, 100 μM ATP) [nM]	IC50 (EGFR wildtype; IC50 WT, 100 μM ATP) [nM]	IC50 (EGFR L858R/C797S; IC50 L858R/C797S, 100 μM ATP) [nM]	IC50 (EGFR L858R/T790M/C797S; [1]) [nM]	IC50 (EGFR del19/T790M/C797S; [2]) [nM]	IC50 (EGFR del19/C797S; [3]) [nM]	IC50 (EGFR wildtype; [4]) [nM]	IC50 (EGFR L858R/C797S; [5]) [nM]	IC50 (EGFR del19/T790M/C797S; [6]) [nM]	IC50 (EGFR L858R/T790M/C797S; [7]) [nM]
C[C@]1(O)CC[C@@H](Nc2cc(Nc3ccnc(-c4cnn(S(=O)(=O)C5CC5)c4)n3)ncc2-c2cc(NC3CC(F)(F)C3)ccn2)CC1 [Example 280, (1s,4s)-4-((6′-((2-(1-(Cyclopropylsulfonyl)-1H-pyrazol-4-yl)pyrimidin-4-yl)amino)-4-((3,3-difluorocyclobutyl)amino)-[2,3′-bipyridin]-4′-yl)amino)-1-methylcyclohexan-1-ol]	2.7	> 10000	20.3	0.5	1	–	–	–	–	–
C[C@]1(O)CC[C@@H](Nc2cc(Nc3ccnc(-c4cnn(S(=O)(=O)C5CC5)c4)n3)ncc2-c2cc(NCCN3CC(F)C3)ccn2)CC1 [Example 281, (1s,4s)-4-((6′-((2-(1-(Cyclopropylsulfonyl)-1H-pyrazol-4-yl)pyrimidin-4-yl)amino)-4-((2-(3-fluoroazetidin-1-yl)ethyl)amino)-[2,3′-bipyridin]-4′-yl)amino)-1-methylcyclohexan-1-ol]	0.6	6340	2.1	0.2	0.2	–	–	–	–	–
C[C@]1(O)CC[C@@H](Nc2cc(Nc3ccnc(-c4cnn(S(=O)(=O)C5CC5)c4)n3)ncc2-c2cc(NCCCO)ccn2)CC1 [Example 282, (1s,4s)-4-((6′-((2-(1-(Cyclopropylsulfonyl)-1H-pyrazol-4-yl)pyrimidin-4-yl)amino)-4-((3-hydroxypropyl)amino)-[2,3′-bipyridin]-4′-yl)amino)-1-methylcyclohexan-1-ol]	1.4	3970	7	0.4	0.2	–	–	–	–	–
CC1(O)CCC(Nc2cc(Nc3ccnc(-c4cnn(S(=O)(=O)C5CC5)c4)n3)ncc2-c2cc(NC3CC(O)C3)ccn2)CC1 (stereo not shown) [Example 283, (1s,4s)-4-((6′-((2-(1-(Cyclopropylsulfonyl)-1H-pyrazol-4-yl)pyrimidin-4-yl)amino)-4-((3-hydroxycyclobutyl)amino)-[2,3′-bipyridin]-4′-yl)amino)-1-methylcyclohexan-1-ol]	0.6	1970	2.3	0.4	0.1	–	–	–	–	–
C[C@]1(O)CC[C@@H](Nc2cc(Nc3ccnc(-c4cnn(S(=O)(=O)C5CC5)c4)n3)ncc2-c2ccc(C(=O)N3CCOCC3)cn2)CC1 [Example 284, (6′-((2-(1-(Cyclopropylsulfonyl)-1H-pyrazol-4-yl)pyrimidin-4-yl)amino)-4′-(((1s,4s)-4-hydroxy-4-methylcyclohexyl)amino)-[2,3′-bipyridin]-5-yl)(morpholino)methanone]	0.2	176	0.4	0.2	0.1	–	–	–	–	–
C[C@]1(O)CC[C@@H](Nc2cc(Nc3ccnc(-c4cnn(S(=O)(=O)C5CC5)c4)n3)ncc2-c2cccc(NCCO)n2)CC1 [Example 285, (1s,4s)-4-((6′-((2-(1-(Cyclopropylsulfonyl)-1H-pyrazol-4-yl)pyrimidin-4-yl)amino)-6-((2-hydroxyethyl)amino)-[2,3′-bipyridin]-4′-yl)amino)-1-methylcyclohexan-1-ol]	0.9	6310	14.1	0.2	0.2	0.4	7.8	0.5	0.1	–
CN1CCC(Oc2cccc(-c3cnc(Nc4ccnc(-c5cnn(S(=O)(=O)C6CC6)c5)n4)cc3N[C@H]3CC[C@@](C)(O)CC3)n2)CC1 [Example 286, (1s,4s)-4-((6′-((2-(1-(Cyclopropylsulfonyl)-1H-pyrazol-4-yl)pyrimidin-4-yl)amino)-6-((1-methylpiperidin-4-yl)oxy)-[2,3′-bipyridin]-4′-yl)amino)-1-methylcyclohexan-1-ol]	0.3	735	2.5	0.3	0.3	0.3	–	0.1	0.2	0.1
CN(C)CCOc1ccnc(-c2cnc(Nc3ccnc(-c4cnn(S(=O)(=O)C5CC5)c4)n3)cc2N[C@H]2CC[C@@](C)(O)CC2)c1 [Example 287, (1s,4s)-4-((6′-((2-(1-(Cyclopropylsulfonyl)-1H-pyrazol-4-yl)pyrimidin-4-yl)amino)-4-(2-(dimethylamino)ethoxy)-[2,3′-bipyridin]-4′-yl)amino)-1-methylcyclohexan-1-ol]	1	5140	44	0.1	0.3	0.4	3	0.8	0.2	0.1
CC1(O)CCC(Nc2cc(Nc3ccnc(-c4cnn(S(=O)(=O)C5CC5)c4)n3)ncc2-c2cc(CN3CC(O)C3)ccn2)CC1 (stereo not shown) [Example 288, 1-((6′-((2-(1-(Cyclopropylsulfonyl)-1H-pyrazol-4-yl)pyrimidin-4-yl)amino)-4′-(((1s,4s)-4-hydroxy-4-methylcyclohexyl)amino)-[2,3′-bipyridin]-4-yl)methyl) azetidin-3-ol]	0.5	2000	6.8	0.2	0.3	0.2	0.7	0.3	0.2	0.1
CN1CC(Oc2ccc(-c3cnc(Nc4ccnc(-c5cnn(S(=O)(=O)C6CC6)c5)n4)cc3N[C@H]3CC[C@@](C)(O)CC3)nc2)C1 [Example 289, (1s,4s)-4-((6′-((2-(1-(Cyclopropylsulfonyl)-1H-pyrazol-4-yl)pyrimidin-4-yl)amino)-5-((1-methylazetidin-3-yl)oxy)-[2,3′-bipyridin]-4′-yl)amino)-1-methylcyclohexan-1-ol]	0.2	206	0.8	0.1	0.2	0.1	0.3	0.1	0.2	0.1
C[C@]1(O)CC[C@@H](Nc2cc(Nc3ccnc(-c4cnn(S(=O)(=O)C5CC5)c4)n3)ncc2-c2ccc(OCCN3CCC3)cn2)CC1 [Example 290, (1s,4s)-4-((5-(2-(Azetidin-1-yl)ethoxy)-6′-((2-(1-(cyclopropylsulfonyl)-1H-pyrazol-4-yl)pyrimidin-4-yl)amino)-[2,3′-bipyridin]-4′-yl)amino)-1-methylcyclohexan-1-ol]	0.3	118	0.6	0.2	0.4	0.2	0.5	0.1	0.4	0.1
CC(C)(F)c1ccc(-c2cnc(Nc3ccnc(-c4cnn(S(=O)(=O)C5CC5)c4)n3)cc2N[C@H]2CC[C@@](C)(O)CC2)nc1 [Example 291, (1s,4s)-4-((6′-((2-(1-(Cyclopropylsulfonyl)-1H-pyrazol-4-yl)pyrimidin-4-yl)amino)-5-(2-fluoropropan-2-yl)-[2,3′-bipyridin]-4′-yl)amino)-1-methylcyclohexan-1-ol]	4.9	> 10000	2.8	1	–	–	3.7	2.3	0.5	0.5
